Experiments:
[1] = target: recombinant human full-length SHP2 (Homo sapiens (Human), UniProt Q06124); experiment: Allosteric inhibition of full-length SHP2 enzyme (DiFMUP fluorescence); format: biochemical; conditions: full-length SHP2 0.5 nM, activating peptide 0.5 uM, DiFMUP substrate
Source text: The following method was used to determine the inhibition degrees of the compounds of the present invention on the activity of recombinant human full-length SHP2 in vitro. SHP2 was allosterically activated by the binding of di-tyrosyl-phosphorylated peptide to a Src homologous 2(SH2) domain of SHP2. An activation step of the latter leads to the self-inhibitory interface release of SHP2, and then activates SHP2 protein tyrosine phosphatase (PTP), which might be used for substrate recognition and reaction catalysis.
The experimental process was briefly described as follows: Test compounds were first dissolved in DMSO to prepare storage solutions. […] Then, the compounds to be tested were added in a concentration range of 0.00004-10 uM and incubated at 25° C. for 60 minutes. Then DiFMUP (Thermo, D6567) was added in the reaction and incubated at 25° C. for 30 minutes. After incubation, readings were taken using a microplate reader (BMG) with excitation and emission wavelengths of 340 nm and 450 nm, respectively.

[2] = system: NCI-H23 cells (containing KRAS G12C mutation); experiment: Inhibition of NCI-H23 cell proliferation (CellTiter-Glo); format: cell-based; conditions: Homo sapiens, 120 hours culture
Protocol: (§1) The following method was used to determine the effects of the compounds of the present invention on NCI-H23 cell proliferation. NCI-H23 cells (containing KRAS G12C mutation) were purchased from Cell Resource Center of Shanghai Institutes for Biological Sciences, Chinese Academy of Sciences, and cultured in RPMI 1640 mediums containing 10% fetal bovine serum, 100 U penicillin, 100 μg/mL streptomycin and 1 mM Sodium Pyruvate. The activities of the cells were determined by CellTiter-Glo® Luminescent Cell Viability Assay kit (Promega, article number: G7573).
(§2) The experimental method was operated according to the steps in the kit instruction, and was briefly described as follows: test compounds were first dissolved in DMSO to prepare storage solutions of 10 mM, and then diluted in mediums, prepared as test samples. The final concentrations of the test compounds were 10,000 nM to 1.52 nM. The cells in logarithmic phase were inoculated in a 96-well cell culture plate with 1,000 cells per well, after cultured overnight in 5% CO2 incubator at 37° C., the test compounds were added to the incubator to continue the culture for 120 hours. After the culture, 50 μL of CellTiter-Glo detection solution was added to each well, shaken for 5 minutes, and then stood for 10 minutes. Then, a Luminescence mode was used to read the luminescence values of each well of the samples on a microplate reader. Compared with the numerical value of a control group (0.3% DMSO), the percentage inhibition rates of the compounds at each concentration were calculated, and the IC50 values of the compounds inhibiting cell proliferation were obtained by performing nonlinear regression analysis with logarithmic values of the compound concentration—inhibition rate by GraphPad Prism 5 software, which was shown in Table 2.

[3] = Pharmacokinetic test in ICR mice, intragastric (Test Example 4); format: in vivo; conditions: PO
Source text: ICR mice were used as test animals, and LC/MS/MS methods was used to determine the drug concentrations at different moments in plasma of mice administered by intragastric injection with the compound 5 and the compound 6 of the present invention, and to study the pharmacokinetic characteristics of the compounds of the present invention in mice. An appropriate amount of drug was weighed, added with an appropriate amount of sodium carboxymethylcellulose (CMC-Na, containing 0.5% Tween 80), vortexed, and ultrasonically prepared into 1 mg/kg suspension. The ICR mice in the intragastric group of each compound to be tested (9 mice in each group) were fasted overnight and then administered by intragastric injection (PO, […], and administration volume of 10 mL/kg), and ate 4 hours after administration. About 0.2 mL of blood was collected via jugular vein before administration and 0.083 hour, 0.25 hour, 0.5 hour, 1 hour, 2 hours, 4 hours, 8 hours and 24 hours after administration, and heparin sodium was used for anticoagulation. The collected blood samples were placed on ice, and plasma was separated by centrifugation (centrifugation condition: 1,500 g, 10 minutes). The collected plasma samples were stored at −40° C. to −20° C. before analysis. LC-MS/MS was used to determine the contents of the compounds to be tested in mouse plasma after intragastric administration.

[4] = system: NCI-H358 cells (containing KRAS G12C mutation); experiment: Inhibition of NCI-H358 cell proliferation (CellTiter-Glo); format: cell-based; conditions: Homo sapiens, NCI-H358, 120 h, read-out: IC50(nM)/NCI-H358
Protocol: as §1, with “NCI-H358” for “NCI-H23”
as §2, with “of the” for “of a”, “Table 3.” for “Table 2.”

IC50 [1] [µM] | SMILES | other results
0.029 | CC1(N)CCN(c2nc(C(N)=O)c3c(-c4cccc(Cl)c4Cl)n[nH]c3n2)CC1 [Example 2, 6-(4-amino-4-methylpiperidin-1-yl)-3-(2,3-dichlorophenyl)-1H-pyrazolo[3,4-d]pyrimidine-4-carboxamide] | 
0.005 | NC(=O)c1nc(N2[C@@H]3CC[C@H]2C[C@H](N)C3)nc2[nH]nc(-c3cccc(Cl)c3Cl)c12 [Example 8, 6-((exo)-3-amino-8-azabicyclo[3.2.1]octan-8-yl)-3-(2,3-dichlorophenyl)-1H-pyrazolo[3,4-d]pyrimidine-4-carboxamide] | 
0.001 | N[C@@H]1c2ccccc2CC12CCN(c1nc(C(=O)O)c3c(-c4cccc(Cl)c4Cl)n[nH]c3n1)CC2 [Example 9, (S)-6-(1-amino-1,3-dihydrospiro[indene-2,4′-piperidin]-1′-yl)-3-(2,3-dichlorophenyl)-1H-pyrazolo[3,4-d]pyrimidine-4-carboxylic acid] | IC50 [2]: 13 nM
0.017 | NC(=O)c1nc(N2CCC(N)(c3c(F)cccc3F)CC2)nc2[nH]nc(-c3cccc(Cl)c3Cl)c12 [Example 11, 6-(4-amino-4-(2,6-difluorophenyl)piperidin-1-yl)-3-(2,3-dichlorophenyl)-1H-pyrazolo[3,4-d]pyrimidine-4-carboxamide] | 
0.008 | CC1(N)CCN(c2nc(C(N)=O)c3c(-c4cccc(Br)c4Cl)n[nH]c3n2)CC1 [Example 12, 6-(4-amino-4-methylpiperidin-1-yl)-3-(3-bromo-2-chlorophenyl)-1H-pyrazolo[3,4-d]pyrimidine-4-carboxamide] | 
0.01 | NC(=O)c1nc(N2CCC(N)(CO)CC2)nc2[nH]nc(-c3cccc(Cl)c3Cl)c12 [Example 13, 6-(4-Amino-4-(hydroxymethyl)piperidin-1-yl)-3-(2,3-dichlorophenyl)-1H-pyrazolo[3,4-d]pyrimidine-4-carboxamide] | 
0.024 | NC(=O)c1nc(N2CCC(N)CC2)nc2[nH]nc(-c3cccc(Cl)c3Cl)c12 [Example 15, 6-(4-Aminopiperidin-1-yl)-3-(2,3-dichlorophenyl)-1H-pyrazolo[3,4-d]pyrimidine-4-carboxamide] | 
0.002 | NC1(c2ccccc2Cl)CCN(c2nc(C(=O)O)c3c(-c4cccc(Cl)c4Cl)n[nH]c3n2)CC1 [Example 23, 6-(4-amino-4-(2-chlorophenyl)piperidin-1-yl)-3-(2,3-dichlorophenyl)-1H-pyrazolo[3,4-d]pyrimidine-4-carboxylic acid] | 
0.005 | NC1(c2ccc(Cl)cc2)CCN(c2nc(C(=O)O)c3c(-c4cccc(Cl)c4Cl)n[nH]c3n2)CC1 [Example 24, 6-(4-amino-4-(4-chlorophenyl)piperidin-1-yl)-3-(2,3-dichlorophenyl)-1H-pyrazolo[3,4-d]pyrimidine-4-carboxylic acid] | 
0.005 | NC1(c2cccc(Cl)c2)CCN(c2nc(C(=O)O)c3c(-c4cccc(Cl)c4Cl)n[nH]c3n2)CC1 [Example 25, 6-(4-amino-4-(3-chlorophenyl)piperidin-1-yl)-3-(2,3-dichlorophenyl)-1H-pyrazolo[3,4-d]pyrimidine-4-carboxylic acid] | 
0.003 | Cc1cccc(-c2n[nH]c3nc(N4CCC(N)(c5ccccc5)CC4)nc(C(N)=O)c23)c1Cl [Example 29, 6-(4-amino-4-phenylpiperidin-1-yl)-3-(2-chloro-3-methylphenyl)-1H-pyrazolo[3,4-d]pyrimidine-4-carboxamide] | 
0.003 | NC1(c2ccccc2)CCN(c2nc(-c3nnn[nH]3)c3c(-c4cccc(Cl)c4Cl)n[nH]c3n2)CC1 [Example 30, 1-(3-(2,3-dichlorophenyl)-4-(1H-tetrazol-5-yl)-1H-pyrazolo[3,4-d]pyrimidin-6-yl)-4-phenylpiperidin-4-amine] | 
0.01 | COc1nccc(-c2n[nH]c3nc(N4CCC(N)(c5ccccc5F)CC4)nc(C(N)=O)c23)c1Cl [Example 32, 6-(4-amino-4-(2-fluorophenyl)piperidin-1-yl)-3-(3-chloro-2-methoxypyridin-4-yl)-1H-pyrazolo[3,4-d]pyrimidine-4-carboxamide] | 
0.027 | NC(=O)c1nc(N2CCC(N)(c3ccccn3)CC2)nc2[nH]nc(-c3cccc(Cl)c3Cl)c12 [Example 38, 6-(4-amino-4-(pyridin-2-yl)piperidin-1-yl)-3-(2,3-dichlorophenyl)-1H-pyrazolo[3,4-d]pyrimidine-4-carboxamide] | 
0.003 | COc1ccc(C2(N)CCN(c3nc(C(N)=O)c4c(-c5cccc(Cl)c5Cl)n[nH]c4n3)CC2)cc1 [Example 46, 6-(4-amino-4-(4-methoxyphenyl)piperidin-1-yl)-3-(2,3-dichlorophenyl)-1H-pyrazolo[3,4-d]pyrimidine-4-carboxamide] | 
0.011 | NC(=O)c1nc(N2CCC(N)(c3ccccc3)CC2)nc2[nH]cc(-c3cccc(Cl)c3Cl)c12 [Example 53, 2-(4-amino-4-phenylpiperidin-1-yl)-5-(2,3-dichlorophenyl)-7H-pyrrolo[2,3-d]pyrimidine-4-carboxamide] | 
 | Cc1nc(N2CCC3(CC2)CO[C@@H](C)[C@H]3N)c(CO)nc1-c1cccc(Cl)c1Cl [RMC-4550, reference compound] | IC50 [2]: 240 nM; IC50 [4]: 80 nM

SMILES | IC50 [1] [µM] | other results
NC(=O)c1nc(N2CCC3(CC2)Cc2ccccc2[C@H]3N)nc2[nH]nc(-c3cccc(Cl)c3Cl)c12 [Example 5, (S)-6-(1-amino-1,3-dihydrospiro[indene-2,4′-piperidin]-1′-yl)-3-(2,3-dichlorophenyl)-1H-pyrazolo[3,4-d]pyrimidine-4-carboxamide] | 0.001 | IC50 [2]: 143 nM; Pharmacokinetic properties (conclusion in words) [3]: good pharmacokinetic properties; AUC(0-inf) ([3]; mouse, 10 mg/kg per table (method text says 1 mg/kg), plasma, read-out: Area under curve AUC0-∞): 31300 ng·h/mL; Cmax ([3]; mouse, 10 mg/kg per table (method text says 1 mg/kg), plasma, read-out: Blood concentration Cmax): 2110 ng/mL; IC50 [4]: 27 nM
NC(=O)c1nc(N2[C@@H]3CC[C@H]2C[C@@H](N)C3)nc2[nH]nc(-c3cccc(Cl)c3Cl)c12 [Example 7, 6-((endo)-3-amino-8-azabicyclo[3.2.1]octan-8-yl)-3-(2,3-dichlorophenyl)-1H-pyrazolo[3,4-d]pyrimidine-4-carboxamide] | 0.014 | 

From patent US20230348467A1, “Heteroaryl Derivative, Preparation Method Therefor, And Use Thereof” (Zhejiang Hisun Pharmaceutical Co., Ltd., priority 2020, published 2023)
